Measured values from patent US7439024B2, “Methods and kits for diagnosing or monitoring autoimmune and chronic inflammatory diseases” (The United States of America as represented by the …, priority 2005, dated 2008).

Key:
CD70 [1] = conditions: PHA-stimulated purified T cells, 3 days after treatment, oligonucleotide arrays, 2 independent experiments, mean±SEM
CD70 mRNA = assay: Real time RT-PCR of CD70 transcripts relative to β-actin in drug-treated T cells; type: cell-based, human; conditions: for CD70 transcripts relative to β-actin, normalized to the untreated control: CD4+ T cells stimulated with anti-CD3 + anti-CD28, 5 μm 5-azaC, 50 μm Pca, 20 μm Hyd, 40 μm U0126 or 25 μm PD98059 for 3 days, FIG. 9; for expression of CD70 mRNA relative to that of beta-actin vs untreated cells: T cells, real time RT-PCR, FIG. 1B
Experimental: Cells and cell culture. Peripheral blood mononuclear cells (PBMCs) were isolated by density-gradient centrifugation. T cells were then isolated by E-rosetting (See, e.g., Golbus et at., Clin Immunol Immunopathol 46, 129 (1988)). […] Where indicated, the cells were cultured in RPMI 1640/10% fetal calf serum (FCS) supplemented with interleukin-2 (IL-2) (See, e.g., Richardson et at., Clin Immunol Immunopathol 55, 368 (1990)), in round-bottomed 5-ml culture tubes (FALCON). Cells were stimulated with 1 μg/ml of PHA (REMEL) for 16 hours, then cultured in 24-well plates at a density of 1×10^6 for an additional 72 hours in the presence of 2-deoxy-5-azaC or 5-azaC (SIGMA-ALDRICH), procainamide (SIGMA-ALDRICH), hydralazine (SIGMA-ALDRICH), or the MEK inhibitors U0126 (PROMEGA) or PD98059 (PROMEGA […]). In other studies, PHA-stimulated PBMCs were cultured in RPMI 1640/10% FCS and treated with indomethacin, chloroquine, hydrocortisone, and 6-mercaptopurine (6-MP) (all from SIGMA-ALDRICH). TT48E, a cloned, CD4+, tetanus toxoid-reactive human T cell line, was cultured as previously described (Comacchia et al., J Immunol 140, 2197 (1988); Richardson et al., Arthritis Rheum 35, 647 (1992)).
(§1) In other studies, T cells were isolated by negative selection using magnetic beads and instructions provided by the manufacturer (Pan T cell Isolation Kit, Miltenyi), and the CD4+ or CD8+ subset was similarly isolated by magnetic cell sorting. […] Purified human CD4+ T cells were first stimulated with plate bound anti-CD3 and soluble anti-CD28.

CD70 [2] = assay: Flow cytometric analysis of CD70 expression on T cells treated with DNA methylation inhibitors; type: cell-based, human; conditions: for increase of CD70 expression on T cell clone TT48E: 3 days, 6 serial experiments; for increase of CD70 MFI on CD4+ T cells: CD4+ T cell subset; for CD70 expression on PHA-stimulated T cells, treated vs untreated: polyclonal T cells, 1 μM 5-azaC 3 days, procainamide increasing dosage, 25 μM PD98059 and dose response, 40 μM U0126 and dose response, FIG. 2; for CD70 expression on CD4+ T cells: summary statement in Example 8
autologous B cells = assay: T cell and B cell costimulation assay, IgG ELISA of supernatants; type: cell-based, human; conditions: P<0.05; for IgG produced by B cells cultured with drug-treated cloned T cells vs untreated T cells: TT48E cloned CD4+ T cell line treated 3 days, autologous B cells, without PWM, FIG. 4; for IgG secreted by B cells cultured with drug-treated T cells vs same numbers of untreated T cells: unfractionated PHA-stimulated T cells treated 3 days, cultured with PWM and autologous B cells 8 days, FIG. 3
Experimental: T cell and B cell costimulation assays. E-rosette-purified T cells were stimulated for 16 hours with PHA and then treated with the indicated chemicals for an additional 72 hours as described above. Where indicated, T cell subsets were isolated by negative selection using magnetic beads (Miltenyi). B cells (1-4×10^5) enriched by negative selection using magnetic beads (Miltenyi) and assessed to be 70-85% pure using PE-conjugated anti-human CD21 (PHARMINGEN), were added to washed, drug-treated autologous T cells, at T cell to B cell ratios of 4:1, 2:1, 1:1, 1:2, and 1:4. Where indicated, 0.625 μg/ml of PWM (ALDRICH) was added. The cells were cultured in RPMI 1640/10% FBS/penicillin/streptomycin for 8 days in 96-well roundbottomed plates (Costar) containing a 200 μl total volume (performed in duplicate). Cells were supplemented with 50 μl of medium on day 4. Where indicated, 1 μg/ml of anti-CD70 monoclonal antibody (HNE51) (DAKO) was added to the cultures. TT48E cells were similarly stimulated with PHA (1 μg/ml) for 18 hours, treated with the indicated drugs for 3 days, then similarly cultured with autologous B cells for 8 days. Where indicated, the TT48E cells were pretreated with 1 μg/ml of anti-CD70 for 30 minutes at […], then washed and added to the B cells, according to protocols described by others (See, e.g., Kobata et at., Proc Natl Acad Sci U S A 92, 11249 (1995)).
IgG enzyme-linked immunosorbent assays (ELISAs). IgG was measured in the supernatants of the T cell-B cell cultures (See, e.g., Richardson et al., Clin Immunol Immunopathol 55, 368 (1990)). Briefly, 96-well flatbottomed polystyrene plates (Costar) were coated with 1 μg/ml of goat anti-human IgG (Southern Biotech) and washed. Unreacted combining sites were sealed with 3% bovine serum albumin (BSA) in phosphate buffered saline (PBS) by incubation at 4° C. for 16 hours. Pooled supernatants from duplicate wells were diluted 1:5 in PBS/1% BSA, and 50 μl was added to the wells. Serial dilutions of purified human IgG (Sigma) were used for quantitation. Following incubation and washing, goat anti-human IgG conjugated with horseradish peroxidase (Southern Biotech) was added, and cells were incubated for 2 hours at room temperature. The wells were washed 3 times with PBS/0.1% Tween 20, and color was developed using Sigma Fast tablets. The plates were read at 405 nm using a SpectraMax spectrophotometer (Molecular Devices). All determinations were performed in quadruplicate.
Since CD70 participates in T cell-dependent B cell stimulation (See e.g., Kobata et al., Proc Natl Acad Sci USA 92, 11249 (1995)), the effects of DNA methylation inhibitors on CD70-dependent B cell help were examined. […] Eight days later, total IgG in the supernatants was measured by ELISA. […]

CD70 promoter = assay: Bisulfite sequencing of the CD70 promoter in drug-treated CD4+ T cells; type: cell-based, human; conditions: for methylation of the 10 CG pairs in the CD70 promoter region between −515 and −423: CD4+ T cells stimulated with anti-CD3 and anti-CD28, vs stimulated untreated controls, FIGS. 13, 14
From the text: as §1
Bisulfite sequencing. The putative CD70 promoter was identified using the published CD70 cDNA sequence and Tfsitescan software. Deoxycytosine (dC) and deoxymethylcytosine (d^mC) bases in the gene promoter and 5′ flanking sequences were identified by bisulfite treatment of purified DNA followed by nested PCR amplification of 3 sequential fragments to span the entire region. The primers were designed to avoid CG pairs and to account for the conversion of dC to dU by the bisulfite. EcoRI sites were added to the forward primers, and XbaI to the reverse, to facilitate cloning. The amplified fragments were then cloned into PBS+, and 5 clones sequenced for each fragment. The primers used were: […]
The effect of lupus and DNA methylation inhibitors on a regulatory element in the CD70 promoter was examined. DNA was isolated from the CD4+ T cells of 7 healthy individuals or 6 lupus patients, bisulfite treated, the region from −466-−515, containing 6 CG pairs was amplified by PCR, and 5 fragments sequenced from each individual. The average methylation status of the 6 CG pairs for healthy versus lupus individuals is shown (FIG. 8, NI and Lupus, respectively). CD4+ T cells from 5 individuals were also stimulated with PHA, treated with the irreversible DNA methyltransferase inhibitor 5-azacytidine (5-azaC), and the methylation status of the 6 CG pairs similarly analyzed from the 25 fragments sequenced (FIG. 8, 5-azaC). […] Results are presented as the mean±SEM of the average methylation of the 6 CG pairs, measured from the 10-35 determinations/group.
The effects of the DNA methylation inhibitors on the methylation status of this region were then compared. […] Again, 5 cloned fragments were sequenced from each control, for a total of 35 determinations per CG pair. […] FIG. 14 compares the average methylation for the 10 CG pairs (−515 to −423) in the T cells treated with DNA methylation inhibitors relative to stimulated, untreated controls.

CD70 [3] = assay: CD70 expression on CD4+ cells of PBMCs cultured with medications commonly used to treat lupus (flow cytometry); type: cell-based, human; conditions: PBMCs with or without PHA, 24 hours, graded concentrations 1-100 μM

SMILES | CD70 transcripts relative to β-actin, normalized to the untreated control (CD70 mRNA) | CD70 expression on PHA-stimulated T cells, treated vs untreated (CD70 [2]) | CD70 expression on CD4+ T cells (CD70 [2]) | methylation of the 10 CG pairs in the CD70 promoter region between −515 and −423 (CD70 promoter) | CD70 expression on stimulated or unstimulated CD4+ cells (CD70 [3]) | also measured
Nc1ncn([C@H]2C[C@H](O)[C@@H](CO)O2)c(=O)n1 [2-deoxy-5-azaC] | – | – | – | – | – | CD70 expression increase in treated cells relative to untreated controls (CD70 [1]): 2.6±0.6 fold
Nc1ncn([C@@H]2O[C@H](CO)[C@@H](O)[C@H]2O)c(=O)n1 [5-azaC, 5-azacytidine] | increase CD70 transcripts | small increase | increased CD70 expression | hypomethylated compared to controls | – | expression of CD70 mRNA relative to that of beta-actin vs untreated cells (CD70 mRNA): increased the expression of CD70 mRNA; increase of CD70 expression on T cell clone TT48E (CD70 [2]; 1 μM, P=0.048): 1.69±0.33 fold; increase of CD70 MFI on CD4+ T cells (CD70 [2]; 1 μM, P=0.025, n=5): 1.53±0.45 fold; concentration producing the greatest effect on CD70 expression (CD70 [2]; range of 5-azaC concentrations, P=0.001 overall, n=5 experiments, FIG. 2B): 1 µM; IgG produced by B cells cultured with drug-treated cloned T cells vs untreated T cells (autologous B cells): greater amounts of IgG; IgG secreted by B cells cultured with drug-treated T cells vs same numbers of untreated T cells (autologous B cells): greater amounts of IgG; CD70 expression increase in treated cells relative to untreated controls (CD70 [1]): > 2 fold
Sc1ncnc2nc[nH]c12 [6-MP, 6-mercaptopurine] | – | – | – | – | No increase in CD70 expression | –
COc1cccc(-c2cc(=O)c3ccccc3o2)c1N [PD98059] | increase CD70 transcripts | increase in CD70 expression with treatment | increased CD70 expression | appears to demethylate | – | increase of CD70 MFI on CD4+ T cells (CD70 [2]; 25 μM, P=0.032, n=3): 1.63±0.43 fold
N#CC(=C(/N)Sc1ccccc1N)/C(C#N)=C(\N)Sc1ccccc1N [U0126] | increase CD70 transcripts | increase in CD70 expression with treatment | increased CD70 expression | appears to demethylate | – | expression of CD70 mRNA relative to that of beta-actin vs untreated cells (CD70 mRNA): increased the expression of CD70 mRNA; increase of CD70 expression on T cell clone TT48E (CD70 [2]; 40 μM, P=0.004): 1.87±0.37 fold; increase of CD70 MFI on CD4+ T cells (CD70 [2]; 40 μM, P=0.039, n=4): 3.20±0.44 fold; increase of CD70 MFI in T cells treated with U0126 (FIG. 2I) (CD70 [2]; P=0.085, stated in the passage on the smaller CD8+ increase): 2.83±0.95 fold; IgG produced by B cells cultured with drug-treated cloned T cells vs untreated T cells (autologous B cells): greater amounts of IgG; IgG secreted by B cells cultured with drug-treated T cells vs same numbers of untreated T cells (autologous B cells): greater amounts of IgG
CCN(CC)CCCC(C)Nc1ccnc2cc(Cl)ccc12 (stereo not drawn) [chloroquine] | – | – | – | – | No increase in CD70 expression | –
C[C@]12CCC(=O)C=C1CC[C@@H]1[C@@H]2[C@@H](O)C[C@@]2(C)[C@H]1CC[C@]2(O)C(=O)CO [hydrocortisone] | – | – | – | – | No increase in CD70 expression | –
COc1ccc2c(c1)c(CC(=O)O)c(C)n2C(=O)c1ccc(Cl)cc1 [indomethacin] | – | – | – | – | No increase in CD70 expression | –
CCN(CC)CCNC(=O)c1ccc(N)cc1 [procainamide] | increase CD70 transcripts | increase in the ratio of the mean fluorescence intensity (MFI) of CD70 expression | increased CD70 expression | appears to demethylate | – | methylation status of the CD70 promoter region from −466-−515 containing 6 CG pairs (CD70 promoter; PHA-stimulated CD4+ T cells, FIG. 8): demethylate this region
